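Test compounds were applied to cells in 96-well plates for 48 hours at 5 doses. TGI denotes the concentration required for complete inhibition of growth.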
Experiments:
Experiment in all cases: NCI-60 cell line screen, 48 h
IGROV1 ovarian = test system: IGROV1 ovarian
786-0 renal = test system: 786-0 renal
NCI/ADR-RES ovarian = test system: NCI/ADR-RES ovarian
KM20L2 colon = test system: KM20L2 colon
XF 498 CNS = test system: XF 498 CNS
M19-MEL melanoma = test system: M19-MEL melanoma
SNB-78 CNS = test system: SNB-78 CNS
DMS 273 small cell lung = test system: DMS 273 small cell lung
LXFL 529 NSCLC = test system: LXFL 529 NSCLC
DLD-1 colon = test system: DLD-1 colon
DMS 114 small cell lung = test system: DMS 114 small cell lung

Structure (SMILES)	TGI (IGROV1 ovarian)	TGI (786-0 renal)	TGI (NCI/ADR-RES ovarian)	other results
FC(F)(F)c1ccc(Cc2nc3cc4ccccc4cc3[nH]2)cc1	> 100 µM	> 100 µM	> 100 µM	
CCCCNc1nc2ccccc2c2c1ncn2CC(C)C	> 100 µM	> 100 µM	> 100 µM	
CCc1c(CN)c(CC)c(CNC2=NCCN2)c(CC)c1CNC1=NCCN1	> 100 µM	> 100 µM	> 100 µM	
O=c1[nH]nc(Cc2ccc(Cl)cc2)n1/N=C/c1ccco1		> 100 µM	> 100 µM	
CC(C)(C)c1cc(-c2cc(C(C)(C)C)[nH]n2)n[nH]1	> 100 µM	> 100 µM		
COc1ccc(CC2C3=C(CCN2C(=O)C2CCC2)CC2(CC3)OCCO2)cc1O (configuration not stated)	> 100 µM	> 100 µM	42.2 µM	
c1cnn(C23C4C5C6C4C2C6C53)c1 (configuration not stated)	> 100 µM	> 100 µM	> 100 µM	
Cc1sc2[nH]c(=O)oc(=O)c2c1C	> 100 µM	> 100 µM	> 100 µM	
O=[N+]([O-])c1ccc2nc(Cl)n[n+]([O-])c2c1	25.6 µM	22.8 µM	60.1 µM	
CC1(C)CC(=O)C(/C=N/C(N)=S)=C(O)C1	> 100 µM	> 100 µM	> 100 µM	
Nc1ccccc1Nc1ccccc1C(=O)[O-].Nc1ccccc1Nc1ccccc1C(=O)[O-].[Zn+2]	> 100 µM	> 100 µM		TGI (KM20L2 colon): > 100 µM; TGI (XF 498 CNS): 78.7 µM
O=C(Cn1cc(-c2ccccc2)nn1)NC1CCCCC1	> 100 µM	> 100 µM	> 100 µM	
COc1cc(/C=C2/SC(c3ccccc3)N(Cc3ccccc3)C2=O)cc(OC)c1OC (configuration not stated)		> 100 µM	> 100 µM	
O=C1NC(=S)N/C1=C\c1cc2c(=O)c3ccccc3sc2s1	> 100 µM	> 100 µM	> 100 µM	
C[Si](C)(C)C#Cc1cc(-c2nc3ccccc3s2)ccc1N	13.2 µM	30.7 µM	32.3 µM	
CC(=O)OC1CC2CCN3C(=O)c4cc5c(cc4[C@H](C1OC(C)=O)C23)OCO5 (some centres not stated)	> 100 µM	> 100 µM		TGI (M19-MEL melanoma): > 100 µM; TGI (KM20L2 colon): > 100 µM; TGI (SNB-78 CNS): > 100 µM; TGI (DMS 273 small cell lung): > 100 µM; TGI (LXFL 529 NSCLC): > 100 µM; TGI (DLD-1 colon): > 100 µM
O=C(NC(Cl)(C(F)(F)F)C(F)(F)F)c1ccc(F)cc1	> 100 µM	> 100 µM	> 100 µM	
CCN1CCCC(C#N)(c2ccccc2)CC1 (configuration not stated)	> 100 µM	> 100 µM	> 100 µM	
O=C(O)CSCc1cc2c(O)c(c1)Cc1cc(CSCC(=O)O)cc(c1O)Cc1cc(CSCC(=O)O)cc(c1O)Cc1cc(CSCC(=O)O)cc(c1O)C2	> 100 µM	> 100 µM	> 100 µM	

Structure (SMILES)	TGI (IGROV1 ovarian)	TGI (786-0 renal)	TGI (NCI/ADR-RES ovarian)	other results
COC(=O)CCC(C)[C@H]1CCC2C3C(C[C@H](OC(C)=O)[C@@]21C)[C@@]1(C)CCC2(C[C@H]1C[C@H]3OC(C)=O)OOC1(CCCC1)OO2 (some centres not stated)	25.4 µM	> 100 µM	> 100 µM	
O=Cc1c2n(c3ccccc13)N[C@@](Cc1ccc(O)cc1)(C(=O)O)C2	> 100 µM	> 100 µM	> 100 µM	
N#C[C@H](C(=O)c1ccccc1F)c1nc2ccccc2s1	> 100 µM	> 100 µM	> 100 µM	
CCN(CC)Cc1cc(Nc2c3ccccc3nc3c2[nH]c2ccccc23)cc(CN(CC)CC)c1O	3.29 µM	0.974 µM		
O=[N+]([O-])c1ccc(-c2cc(O)c3nc4ccccc4n3c2)cc1	> 100 µM	> 100 µM	> 100 µM	
C(/C=C/c1ccccc1)=Nc1ccc2c(c1)Cc1ccccc1-2	> 100 µM	> 100 µM	> 100 µM	
Cc1ccc(S(=O)(=O)N2CCN(S(=O)(=O)c3ccc(C)cc3)CCN(S(=O)(=O)c3ccc(C)cc3)Cc3cc(C#N)c(C#N)cc3CN(S(=O)(=O)c3ccc(C)cc3)CC2)cc1	> 100 µM	> 100 µM	> 100 µM	
CCOc1ccc2nc3nc(=O)[nH]c(C)c3c(NCCCN(CC)CC)c2c1	> 100 µM	> 100 µM	> 100 µM	
CCOP(=O)(C=C=C1CCC2[C@@H]3CCc4cc(OC)ccc4C3CC[C@]12C)OCC (some centres not stated)	23.6 µM	25.3 µM	24.2 µM	
N#CC(N)c1ccc(OCCCCCCCCCCOc2ccc(C(N)C#N)cc2)cc1 (configuration not stated)	> 100 µM	> 100 µM	> 100 µM	
N#Cc1cnc(-n2[nH]c3c(c2=O)CCCC3)[nH]c1=O	> 100 µM	> 100 µM		
O=C1c2cccnc2S(=O)(=O)N1c1ccc(Oc2ccccc2)cc1	> 100 µM	> 100 µM	> 100 µM	
O=C(NC(=S)Nc1ccc2c(c1)Sc1ccccc1O2)c1ccc([N+](=O)[O-])cc1	> 100 µM	> 100 µM	> 100 µM	
CCN(CC)C(=O)Cn1c(-c2ccccc2)cc2ccccc21	> 100 µM	> 100 µM	> 100 µM	
O=C(CC(CC(=O)Oc1c(Br)cc(Br)cc1C(=O)O)C(=O)Oc1c(Br)cc(Br)cc1C(=O)O)Oc1c(Br)cc(Br)cc1C(=O)O	87.3 µM	> 100 µM		TGI (DMS 114 small cell lung): > 100 µM; TGI (M19-MEL melanoma): > 100 µM; TGI (KM20L2 colon): > 100 µM; TGI (SNB-78 CNS): > 100 µM; TGI (XF 498 CNS): 38.9 µM; TGI (DMS 273 small cell lung): > 100 µM; TGI (LXFL 529 NSCLC): > 100 µM; TGI (DLD-1 colon): > 100 µM
COc1cc(C(=O)/C=C/c2ccc(OCCSCCCCCCCCCCSCCOc3ccc(/C=C/C(=O)c4cc(OC)c(OC)c(OC)c4)cc3)cc2)cc(OC)c1OC	> 100 µM	> 100 µM	> 100 µM	
O=P1(Oc2ccccc2)N=P(c2ccccc2)(c2ccccc2)C=C(c2ccc(Cl)cc2)N1 (configuration not stated)	26.5 µM	28 µM	27.9 µM	
Oc1cc(O)c2ccc(-c3ccc(O)c(O)c3)[o+]c2c1	> 100 µM	> 100 µM	> 100 µM	
CCOP(=O)(OCC)C(C)(C)N(C)/C(F)=N/C(F)(F)F	> 100 µM	> 100 µM	> 100 µM	
